Test results taken from patent US20090270469A1, “SUBSTITUTED OXAZOLIDINONES” (AUSPEX PHARMACEUTICALS, INC., priority 2008, published 2009).

Columns and labels:
human liver microsomes = assay: In vitro human liver microsomal (HLM) stability assay; type: in vitro ADME; conditions: human liver microsomes 1 mg/mL, 1 μM compound, 37° C., vs non-isotopically enriched drug
Description: Liver microsomal stability assays were conducted at 1 mg per mL liver microsome protein with an NADPH-generating system in 2% NaHCO3 (2.2 mM NADPH, 25.6 mM glucose 6-phosphate, 6 units per mL glucose 6-phosphate dehydrogenase and 3.3 mM MgCl2). Test compounds were prepared as solutions in 20% acetonitrile-water. These solutions were added to the assay mixture (final assay concentration 1 μM) and incubated at 37° C. Final concentration of acetonitrile in the assay should be <1%. Aliquots (50 μL) were collected at the these timpoints: […], and 1 hours, and diluted with ice cold acetonitrile (200 μL) to stop the reactions. Samples were centrifuged at 12,000 RPM for 10 minutes to precipitate proteins. Supernatants were transferred to micro centrifuge tubes and stored for LC/MS/MS analysis of the degradation half-life of the test compounds.
Results of in vitro Human Liver Microsomal (HLM) Stability Assay

[1] = 400 mg oral dose under fasted conditions; cited from earlier work

## Cc1cc(C)cc(OCC2CNC(=O)O2)c1 (centres unmarked) [Example 1, 5-[(3,5-dimethylphenoxy)methyl]oxazolidin-2-one]
Human liver microsomes
  % increase of HLM degradation half-life, bin −25%-0%: + (−25%-0%)
[1]
  terminal half-life: 9.0 ± 4.8 h
  time of peak plasma concentrations: approximately 3 hours

## [2H]C([2H])([2H])c1cc(OCC2CNC(=O)O2)cc(C([2H])([2H])[2H])c1 (centres unmarked) [Example 2, 5-[(3,5-dimethyl-d6-phenoxy)methyl]oxazolidin-2-one]
Human liver microsomes
  % increase of HLM degradation half-life, bin 0%-50%: + (0%-50%)

## [2H]C([2H])(Oc1cc(C)cc(C)c1)C1CNC(=O)O1 (centres unmarked) [Example 3, 5-[(3,5-dimethyl-phenoxy)methyl-d2]oxazolidin-2-one]
Human liver microsomes
  % increase of HLM degradation half-life, bin 0%-50%: + (0%-50%)

## [2H]C([2H])([2H])c1cc(OC([2H])([2H])C2CNC(=O)O2)cc(C([2H])([2H])[2H])c1 (centres unmarked) [Example 4, 5-[(3,5-Dimethyl-d6-phenoxy)methyl-d2]oxazolidin-2-one]
Human liver microsomes
  % increase of HLM degradation half-life, bin 0%-50%: + (0%-50%)

## [2H]C1([2H])NC(=O)OC1([2H])C([2H])([2H])Oc1cc(C)cc(C)c1 (centres unmarked) [Example 5, 5-[(3,5-Dimethylphenoxy)methyl-d2]oxazolidin-4,4,5-d3-2-one]
Human liver microsomes
  % increase of HLM degradation half-life, bin 0%-50%: + (0%-50%)

## [2H]C([2H])([2H])c1cc(OC([2H])([2H])C2([2H])OC(=O)NC2([2H])[2H])cc(C([2H])([2H])[2H])c1 (centres unmarked) [Example 6, 5-[(3,5-Dimethyl-d6-phenoxy)methyl-d2]oxazolidin-4,4,5-d3-2-one]
Human liver microsomes
  % increase of HLM degradation half-life, bin 0%-50%: + (0%-50%)
